Source: publication PMC10631261 (Chemical Science, 2023)
Like-named read-outs stand apart in the source and are kept apart here.

Assays:
FIH = molecular target: T1, FIH (Homo sapiens, UniProt Q9NWT6); test: SPE-MS FIH inhibition assay; format: biochemical; conditions: for reduction of FIH inhibition compared to 4: IC50 comparison with compound 4
T1 construct: made in house
Procedure: (§1) Protein production and purification
(§2) PAGE analysis) according to established procedures.
(§3) FIH, PHD2, AspH, JMJD5 and KDM4A inhibition assays
(§4) The in vitro FIH,1, 2 PHD2,1 AspH,38 JMJD536 and KDM4A39 inhibition assays were performed as […]
(§5) KDM4A). Synthetic peptide substrates were used: HIF-1α C-terminal transactivation domain fragment […]
(§6) H3Lys9 bearing three methyl groups at the N ϵ position, H3Lys4 substituted by an Ala and H3Lys14 substituted by an Ile residue) for KDM4A.39 Peptides were prepared as C-terminal amides by GL Biochem (Shanghai) Ltd. Peptide hydroxylation in the case of FIH, PHD2, AspH and JMJD5 (+16 Da mass shift) or peptide demethylation in the case of KDM4A ( -14 Da mass shift) was monitored by SPE-MS. […]

PHD2 = PHD2 (Homo sapiens, UniProt Q9GZT9); test: biochemical
Procedure: (§7) 3. Biochemical procedures
as §1, §2, §3, §4, §5, §6

AspH = AspH (Homo sapiens, UniProt Q12797); test: biochemical
Excerpt: (§8) To investigate the potential of BNS for selective FIH inhibition, its selectivity was investigated with respect to other 2OG-dependent protein oxidising enzymes, that is PHD2, Jumonji-C domain-containing protein 5 (JMJD5), aspartate/asparagine-β-hydroxylase (AspH) and KDM4A, using reported SPE-MS inhibition assays.[58,61,69,70] In addition to PHD2 and KDM4A, we included AspH and JMJD5 in our selectivity studies, because AspH, like FIH, catalyses protein aspartate- and asparagine-residue hydroxylation (although in epidermal growth factor-like domains),[71,72] and because JMJD5 is structurally closely related to FIH.[73,74]
as §7, §1, §2, §3, §4, §5, §6

JMJD5 = JMJD5 (Homo sapiens, UniProt Q8N371); test: biochemical
Excerpt: as §8, §7, §1, §2, §3, §4, §5, §6

KDM4A = KDM4A (Homo sapiens, UniProt O75164); test: biochemical; format: biochemical
Excerpt: as §8, §7, §1, §2, §3, §4, §5, §6

[1] = IC50 comparison with compound 20

KDM4A, sequence (O75164 1-359): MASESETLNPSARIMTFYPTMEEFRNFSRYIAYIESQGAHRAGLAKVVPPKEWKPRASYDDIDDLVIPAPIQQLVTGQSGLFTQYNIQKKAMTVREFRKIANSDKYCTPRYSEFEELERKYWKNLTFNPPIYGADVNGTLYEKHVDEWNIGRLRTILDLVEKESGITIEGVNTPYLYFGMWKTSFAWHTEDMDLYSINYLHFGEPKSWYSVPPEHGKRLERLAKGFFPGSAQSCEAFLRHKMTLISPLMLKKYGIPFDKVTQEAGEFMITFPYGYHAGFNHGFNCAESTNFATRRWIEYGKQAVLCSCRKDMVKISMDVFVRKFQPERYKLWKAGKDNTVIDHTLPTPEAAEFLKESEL
JMJD5, sequence (Q8N371 whole entry): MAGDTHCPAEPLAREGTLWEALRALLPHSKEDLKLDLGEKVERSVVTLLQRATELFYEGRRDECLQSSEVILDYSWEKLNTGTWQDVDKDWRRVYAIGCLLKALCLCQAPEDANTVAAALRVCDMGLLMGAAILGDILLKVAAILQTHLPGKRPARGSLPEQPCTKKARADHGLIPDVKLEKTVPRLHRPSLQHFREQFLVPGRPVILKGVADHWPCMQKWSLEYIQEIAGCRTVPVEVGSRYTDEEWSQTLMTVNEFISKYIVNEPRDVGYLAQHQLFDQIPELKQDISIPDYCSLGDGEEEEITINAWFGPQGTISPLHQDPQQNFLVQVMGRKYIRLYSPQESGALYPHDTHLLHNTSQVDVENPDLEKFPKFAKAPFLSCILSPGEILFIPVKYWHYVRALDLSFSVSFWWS
T1 sequence (Q9NWT6 whole entry): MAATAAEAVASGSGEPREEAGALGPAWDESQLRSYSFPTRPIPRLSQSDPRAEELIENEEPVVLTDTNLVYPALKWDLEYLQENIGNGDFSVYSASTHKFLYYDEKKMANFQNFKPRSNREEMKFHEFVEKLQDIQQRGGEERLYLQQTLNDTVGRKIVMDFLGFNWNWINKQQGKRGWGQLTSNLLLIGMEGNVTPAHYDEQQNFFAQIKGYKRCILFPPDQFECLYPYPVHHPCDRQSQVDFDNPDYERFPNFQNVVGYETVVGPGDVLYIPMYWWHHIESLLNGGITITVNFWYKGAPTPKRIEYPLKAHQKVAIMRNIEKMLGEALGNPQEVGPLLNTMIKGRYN
PHD2, sequence (Q9GZT9 181-426): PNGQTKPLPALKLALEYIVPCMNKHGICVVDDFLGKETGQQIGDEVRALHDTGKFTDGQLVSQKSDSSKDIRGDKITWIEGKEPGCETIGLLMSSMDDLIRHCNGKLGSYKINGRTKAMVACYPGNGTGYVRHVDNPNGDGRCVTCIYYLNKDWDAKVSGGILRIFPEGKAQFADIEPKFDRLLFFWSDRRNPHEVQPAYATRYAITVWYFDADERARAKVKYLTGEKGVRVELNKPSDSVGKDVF
AspH, sequence (Q12797 315-758): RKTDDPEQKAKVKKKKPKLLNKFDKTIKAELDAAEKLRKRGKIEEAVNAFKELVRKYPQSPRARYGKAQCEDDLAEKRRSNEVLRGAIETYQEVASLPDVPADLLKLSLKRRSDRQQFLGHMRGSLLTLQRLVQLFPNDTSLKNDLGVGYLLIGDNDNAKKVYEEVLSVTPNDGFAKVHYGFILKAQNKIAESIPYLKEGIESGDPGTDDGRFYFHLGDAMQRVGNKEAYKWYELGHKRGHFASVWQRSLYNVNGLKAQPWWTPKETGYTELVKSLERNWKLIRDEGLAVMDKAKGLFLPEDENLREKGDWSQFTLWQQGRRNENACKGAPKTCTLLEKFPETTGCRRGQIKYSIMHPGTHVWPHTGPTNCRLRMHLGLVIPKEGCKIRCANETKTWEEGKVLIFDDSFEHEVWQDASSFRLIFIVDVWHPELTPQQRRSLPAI

Row | SMILES | melting point | IC50 (FIH) | IC50 (PHD2) | IC50 (AspH) | IC50 (JMJD5; read-out: JMJD5 IC50) | IC50 (KDM4A) | also measured
1 | O=C(O)Cc1cs/c(=N\C(=O)CS(=O)(=O)c2ccccc2)n1O (hydrate or solvate) [compound 4] | 179 to 181 °C | – | – | – | – | – | –
2 | CC(C(=O)O)c1cs/c(=N\C(=O)CS(=O)(=O)c2ccccc2)n1O (stereo not drawn) (hydrate or solvate) [compound 6] | 204 to 207 °C | – | – | – | – | – | –
3 | Cc1s/c(=N\C(=O)CS(=O)(=O)c2ccccc2)n(O)c1CC(=O)O (hydrate or solvate) [compound 7] | 181 to 182 °C | – | – | – | – | – | –
4 | O=C(O)CCc1cs/c(=N\C(=O)CS(=O)(=O)c2ccccc2)n1O (hydrate or solvate) [compound 13] | 173 to 176 °C | – | – | – | – | – | –
5 | O=C(O)Cc1cs/c(=N\C(=O)CCS(=O)(=O)c2ccccc2)n1O (hydrate or solvate) [compound 15] | 182 to 184 °C | – | – | – | – | – | –
6 | O=C(O)Cc1cs/c(=N\C(=O)CNC(=O)c2ccccc2)n1O (hydrate or solvate) [compound 16] | 181 to 183 °C | – | – | – | – | – | –
7 | O=C(O)Cc1cs/c(=N\C(=O)CCNS(=O)(=O)c2ccccc2)n1O (hydrate or solvate) [compound 20] | 178 to 180 °C | – | – | – | – | – | –
8 | O=C(O)Cc1cs/c(=N\C(=O)C2CCCN2S(=O)(=O)c2ccccc2)n1O (stereo not drawn) (hydrate or solvate) [compound 28] | > 190 °C (dec.) | – | – | – | – | – | –
9 | CC1(C(=O)/N=c2\scc(CC(=O)O)n2O)CCN(S(=O)(=O)c2ccccc2)C1 (stereo not drawn) (hydrate or solvate) [compound 29] | 158 to 161 °C | – | – | – | – | – | –
10 | O=C(O)Cc1csc(=NC(=O)C2CCN(S(=O)(=O)c3cccc(Cl)c3)C2)n1O (stereo not drawn) (hydrate or solvate) [compound 34] | 178 to 182 °C | – | – | – | – | – | –
11 | O=C(O)Cc1csc(=NC(=O)C2CCN(S(=O)(=O)c3ccc(Cl)cc3)C2)n1O (stereo not drawn) (hydrate or solvate) [compound 35] | 195 to 197 °C | – | – | – | – | – | –
12 | COc1ccc(S(=O)(=O)N2CCC(C(=O)N=c3scc(CC(=O)O)n3O)C2)cc1 (stereo not drawn) (hydrate or solvate) [compound 36] | 180 to 183 °C | – | – | – | – | – | –
13 | O=C(O)Cc1csc(=NC(=O)C2CCN(S(=O)(=O)c3ccc(C(F)(F)F)cc3)C2)n1O (stereo not drawn) (hydrate or solvate) [compound 37] | 183 to 185 °C | – | – | – | – | – | –
14 | O=C(O)Cc1csc(=NC(=O)C2CCN(S(=O)(=O)c3ccc4ccccc4c3)C2)n1O (stereo not drawn) (hydrate or solvate) [compound 40] | 181 to 184 °C | – | – | – | – | – | –
15 | O=C(O)Cc1csc(=NC(=O)C2CCN(S(=O)(=O)c3cccs3)C2)n1O (stereo not drawn) (hydrate or solvate) [compound 41] | 178 to 180 °C | – | – | – | – | – | –
16 | O=C(CS(=O)(=O)c1ccccc1)/N=c1\scc(Cn2ccnn2)n1O [compound 12] | – | > 100 µM | > 100 µM | 83.3 ± 6.7 µM | > 100 µM | > 100 µM | –
17 | CC(=O)/N=c1\scc(CC(=O)O)n1O [compound 14] | – | 52.4 ± 30.4 µM | > 100 µM | > 100 µM | 3.2 ± 0.7 µM | > 100 µM | reduction of FIH inhibition compared to 4 (FIH): > 200 fold
18 | O=C(O)Cc1cs/c(=N\C(=O)CCS(=O)(=O)c2ccccc2)n1O [compound 15] | – | 0.3 ± 0.05 µM | 2.7 ± 0.2 µM | 33 ± 12.1 µM | 3.3 ± 1.5 µM | > 100 µM | –
19 | O=C(O)Cc1cs/c(=N\C(=O)CCNC(=O)c2ccccc2)n1O [compound 17] | 180 to 183 °C | 4.6 ± 0.7 µM | 3.6 ± 0.4 µM | 28.3 ± 6.5 µM | – | > 100 µM | loss in FIH inhibition relative to 20 (FIH; [1]): ~5 fold; IC50 (JMJD5): 4.6 ± 1.7 µM

Row | SMILES | melting point | IC50 (FIH) | IC50 (PHD2) | IC50 (AspH) | IC50 (JMJD5; read-out: JMJD5 IC50) | IC50 (KDM4A) | also measured
20 | O=C(O)Cc1cs/c(=N\C(=O)CCC(=O)Nc2ccccc2)n1O [compound 18] | – | 6 ± 1.2 µM | 2.3 ± 0.1 µM | 3.7 ± 1.5 µM | 8.4 ± 2.7 µM | > 100 µM | –
21 | O=C(O)Cc1cs/c(=N\C(=O)CNS(=O)(=O)c2ccccc2)n1O [compound 19] | 178 to 180 °C | 3.7 ± 1.5 µM | 15.5 ± 4.6 µM | 3.1 ± 0.4 µM | 12 ± 0.6 µM | 17.4 ± 0.2 µM | loss in FIH inhibition relative to 20 (FIH; [1]): ~4 fold
22 | O=C(O)Cc1cs/c(=N\C(=O)CCNS(=O)(=O)c2ccccc2)n1O [compound 20] | – | 1 ± 0.1 µM | 6.5 ± 1.8 µM | 23.3 ± 10.1 µM | 13.4 ± 6.5 µM | > 100 µM | reduction of FIH inhibition compared to 4 (FIH): ~3 fold; selectivity for FIH inhibition over JMJD5 inhibition (FIH; as judged by IC50 values): ~13 fold; selectivity for FIH inhibition over PHD2 inhibition (FIH; as judged by IC50 values): ~6 fold
23 | O=C(O)Cc1cs/c(=N\C(=O)CS(=O)(=O)Nc2ccccc2)n1O [compound 21] | – | 0.36 ± 0.21 µM | 0.57 ± 0.18 µM | 0.76 ± 0.1 µM | 2.8 ± 0.9 µM | > 100 µM | AspH inhibition potency relative to 4 (more potent) (AspH; IC50 comparison with compound 4): ~5 fold
24 | O=C(O)Cc1cs/c(=N\C(=O)C2CN(S(=O)(=O)c3ccccc3)C2)n1O [compound 24] | 170 to 173 °C | 0.45 ± 0.17 µM | 5.2 ± 0.7 µM | 60.9 ± 24.1 µM | 29.1 ± 4.4 µM | > 100 µM | selectivity for FIH inhibition over PHD2 inhibition (FIH; as judged by IC50 values): 12 fold
25 | CC1(C(=O)/N=c2\scc(CC(=O)O)n2O)CN(S(=O)(=O)c2ccccc2)C1 [compound 25] | 156 to 158 °C | 1.2 ± 0.2 µM | 33.5 ± 1 µM | > 100 µM | 32.6 ± 6.7 µM | > 100 µM | –
26 | O=C(O)Cc1csc(=NC(=O)C2CCN(S(=O)(=O)c3ccccc3)C2)n1O (stereo not drawn) [compound 26] | 185 to 187 °C | 0.5 ± 0.02 µM | 12.4 ± 0.8 µM | 37.8 ± 11.3 µM | 12.5 ± 1 µM | > 100 µM | selectivity for FIH with respect to PHD2, JMJD5, AspH and KDM4A inhibition (FIH): > 25 fold; increase of FIH inhibition potency relative to 20 (FIH; [1]): ~2 fold; selectivity for FIH inhibition over AspH inhibition (FIH; as judged by IC50 values): ~75 fold; selectivity for FIH inhibition over JMJD5 inhibition (FIH; as judged by IC50 values): ~25 fold; selectivity for FIH inhibition over PHD2 inhibition (FIH; as judged by IC50 values): ~25 fold
27 | O=C(O)Cc1cs/c(=N\C(=O)C2CCCN(S(=O)(=O)c3ccccc3)C2)n1O (stereo not drawn) [compound 27] | – | 0.87 ± 0.04 µM | 11 ± 1.6 µM | 49.1 ± 1.7 µM | 13.4 ± 1 µM | > 100 µM | –
28 | O=C(O)Cc1cs/c(=N\C(=O)C2CCCN2S(=O)(=O)c2ccccc2)n1O (stereo not drawn) [compound 28] | – | 2.1 ± 1.5 µM | 12.7 ± 1.8 µM | 24.9 ± 12 µM | 2.6 ± 0.2 µM | > 100 µM | –
29 | CC1(C(=O)/N=c2\scc(CC(=O)O)n2O)CCN(S(=O)(=O)c2ccccc2)C1 (stereo not drawn) [compound 29] | – | > 100 µM | > 100 µM | > 100 µM | > 100 µM | > 100 µM | –
30 | O=C(O)Cc1csc(=NC(=O)C2CCN(S(=O)(=O)c3ccccc3Cl)C2)n1O (stereo not drawn) [compound 33] | – | 0.39 ± 0.04 µM | 8 ± 0.2 µM | 30.3 ± 12.6 µM | 11.9 ± 1.8 µM | > 100 µM | –
31 | O=C(O)Cc1csc(=NC(=O)C2CCN(S(=O)(=O)c3cccc(Cl)c3)C2)n1O (stereo not drawn) [compound 34] | – | 0.44 ± 0.03 µM | 14.6 ± 3.2 µM | 35 µM | 18.5 ± 1 µM | > 100 µM | –
32 | O=C(O)Cc1csc(=NC(=O)C2CCN(S(=O)(=O)c3ccc(Cl)cc3)C2)n1O (stereo not drawn) [compound 35] | – | 0.46 ± 0.01 µM | 9.2 ± 0.4 µM | 28.8 ± 8.9 µM | 37.7 ± 0.9 µM | > 100 µM | –
33 | COc1ccc(S(=O)(=O)N2CCC(C(=O)N=c3scc(CC(=O)O)n3O)C2)cc1 (stereo not drawn) [compound 36] | – | 0.46 ± 0.01 µM | 9.8 ± 0.5 µM | 36.6 ± 2.8 µM | 16 ± 6.8 µM | > 100 µM | –
34 | O=C(O)Cc1csc(=NC(=O)C2CCN(S(=O)(=O)c3ccc(C(F)(F)F)cc3)C2)n1O (stereo not drawn) [compound 37] | – | 0.47 ± 0.07 µM | 15.2 ± 3.6 µM | 36 ± 0.7 µM | 63.2 ± 6.1 µM | > 100 µM | –
35 | O=C(O)Cc1csc(=NC(=O)C2CCN(S(=O)(=O)c3ccc4ccccc4c3)C2)n1O (stereo not drawn) [compound 40] | – | 0.45 ± 0.08 µM | 5.2 ± 1.1 µM | 40.1 ± 2.2 µM | 62.8 ± 0.4 µM | > 100 µM | –
36 | O=C(O)Cc1csc(=NC(=O)C2CCN(S(=O)(=O)c3cccs3)C2)n1O (stereo not drawn) [compound 41] | – | 0.47 ± 0.07 µM | 11.2 ± 2.3 µM | 30.3 ± 8 µM | 15.4 ± 7.1 µM | > 100 µM | –
37 | O=C(O)Cc1csc(=NC(=O)C2CCN(S(=O)(=O)C3CCCC3)C2)n1O (stereo not drawn) [compound 43] | 177 to 180 °C | 0.81 ± 0.18 µM | 9.9 ± 0.5 µM | 35.5 ± 3.2 µM | 17.4 ± 6 µM | > 100 µM | –
